21 compounds from patent US11584714B2 (priority 2018, dated 2023) can be followed below.

Holding throughout (type): biochemical
Experiment [1] addresses human α-thrombin (Homo sapiens (Human), UniProt P00734). Description: Enzymatic assay for thrombin (Boc-VPR-AMC substrate).
The target of experiment [2] is MASP-2 (CCP1-CCP2-SP) (Homo sapiens (Human), UniProt O00187). Description: biochemical.
The target of experiment [3] is mMASP-2 (Mus musculus (Mouse), UniProt Q91WP0). Description: Enzymatic inhibition of mMASP-2. As to conditions: read-out: mMASP-2 Ki.
The mark [4] stands for this setting: selectivity for MASP-2 inhibition versus thrombin.
Setting [5] is: MASP-2 inhibition versus thrombin.

Counter-ions that a name gives are not always drawn. Like-named read-outs stand apart in the source and are kept apart here. Square brackets hold non-standard residues; d marks the D form. Peptide text beside a SMILES is read from it. * marks the point of attachment. dChg = N[C@@H](C(=O)O)C1CCCCC1; Agmatine = N=C(N)NCCCCN*; Aze = O=C(O)[C@@H]1CCN1 Some results are limits rather than exact numbers.

Chain of mMASP-2 (Q91WP0 20-685): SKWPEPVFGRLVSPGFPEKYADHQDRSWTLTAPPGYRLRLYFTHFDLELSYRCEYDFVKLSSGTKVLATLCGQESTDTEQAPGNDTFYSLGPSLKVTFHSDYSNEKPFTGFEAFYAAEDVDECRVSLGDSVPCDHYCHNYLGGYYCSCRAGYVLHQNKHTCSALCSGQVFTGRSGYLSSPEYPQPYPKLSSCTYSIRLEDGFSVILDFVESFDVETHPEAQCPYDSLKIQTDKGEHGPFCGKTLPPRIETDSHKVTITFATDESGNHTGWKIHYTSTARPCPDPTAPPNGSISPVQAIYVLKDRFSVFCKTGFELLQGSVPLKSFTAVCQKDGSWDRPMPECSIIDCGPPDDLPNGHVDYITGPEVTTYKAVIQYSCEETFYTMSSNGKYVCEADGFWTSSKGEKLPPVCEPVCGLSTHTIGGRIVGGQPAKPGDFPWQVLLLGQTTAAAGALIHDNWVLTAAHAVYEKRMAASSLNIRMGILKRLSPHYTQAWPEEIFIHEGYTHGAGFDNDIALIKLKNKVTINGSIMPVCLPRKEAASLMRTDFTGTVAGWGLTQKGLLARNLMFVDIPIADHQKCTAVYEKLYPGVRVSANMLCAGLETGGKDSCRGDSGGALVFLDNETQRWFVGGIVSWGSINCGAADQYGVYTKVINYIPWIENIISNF
Chain of MASP-2 (CCP1-CCP2-SP) (O00187 445-686): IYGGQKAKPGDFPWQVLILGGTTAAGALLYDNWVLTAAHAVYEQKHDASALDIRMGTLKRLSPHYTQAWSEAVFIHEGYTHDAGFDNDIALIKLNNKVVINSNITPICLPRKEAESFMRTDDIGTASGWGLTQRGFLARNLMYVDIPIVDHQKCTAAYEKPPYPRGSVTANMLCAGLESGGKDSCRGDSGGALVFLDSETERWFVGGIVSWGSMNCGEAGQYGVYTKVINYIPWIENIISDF

For `C[C@H](NC(=O)[C@H]1C[C@H](c2ccccc2)CN1)C(=O)NCc1ccc(C(=N)NC(=O)OCC(F)(F)F)cc1` [compound 1305, 2,2,2-Trifluoroethyl (imino(4-(((S)-2-((2R,4R)-4-phenylpyrrolidine-2-carboxamido)propanamido)methyl)phenyl)methyl)carbamate], the Ki is > 25 µM in experiment [1] (read-out: Thrombin Ki), 500 to 2500 nM in experiment [2] and < 500 nM in experiment [3]. Further, the “MASP-2 vs. thrombin selectivity” value in experiment [2] (setting [4]) is on record as “** (≥5.0 to <25-fold)”.

In the case of `C[C@H](NC(=O)[C@H]1C[C@H](c2ccccc2)CN1)C(=O)NCc1cc(Br)cc2cn[nH]c12` [compound 1462, (2R,4R)—N—((S)-1-(((5-bromo-1H-indazol-7-yl)methyl)amino)-1-oxopropan-2-yl)-4-phenylpyrrolidine-2-carboxamide], the results for the Ki in experiment [1] (Thrombin Ki (μM)), in experiment [2] and in experiment [3] were 10 to 25 µM, 500 to 2500 nM and 2500 to 10000 nM, respectively. For the same compound, the “MASP-2 vs. thrombin selectivity” value in experiment [2] (setting [4]) is “** (≥5.0 to <25-fold)”.

Turning to `Cc1nc(N)ccc1CNC(=O)[C@H](C)NC(=O)[C@H]1C[C@H](Cc2cccc(C(=O)N3CCC3)c2)CN1` [compound 1420, (2R,4S)—N—((S)-1-(((6-Amino-2-methylpyridin-3-yl)methyl)amino)-1-oxopropan-2-yl)-4-(3-(azetidine-1-carbonyl)benzyl)pyrrolidine-2-carboxamide Di-trifluoroacetate salt], the values for the Ki in experiment [1] (Thrombin Ki (μM)), in experiment [2] (read-out: MASP-2 Ki) and in experiment [3] were 2.5 to 10 µM, < 500 nM and < 500 nM, respectively. Also, the “MASP-2 vs. thrombin selectivity” value in experiment [2] (setting [4]) is reported as “**** (≥100-fold)”.

Regarding `N=C(N)NCCCCNC(=O)[C@@H]1CCN1C(=O)[C@H](N)C1CCCCC1` [compound 1006, (S)-1-((R)-2-Amino-2-cyclohexylacetyl)-N-(4-guanidinobutyl)azetidine-2-carboxamide Dihydrochloride] (H-[dChg]-[Aze]-Agmatine), the figures for the Ki in experiment [1] (read-out: Thrombin Ki), in experiment [2] (read-out: MASP-2 Ki) and in experiment [3] were < 0.5 µM, < 500 nM and < 500 nM, respectively. In addition, the “MASP-2 vs. thrombin selectivity” value in experiment [2] (setting [5]) was “−− (less than 1.0-fold)”.

Turning to `Cc1nc(N)ccc1CNC(=O)[C@H](C)NC(=O)[C@H]1C[C@H](Cc2cc(-c3ccccc3)cs2)CN1` [compound 1399, (2R,4R)—N—((S)-1-(((6-Amino-2-methylpyridin-3-yl)methyl)amino)-1-oxopropan-2-yl)-4-((4-phenylthiophen-2-yl)methyl)pyrrolidine-2-carboxamide Dihydrochloride], the Ki in experiment [1] (Thrombin Ki (μM)) is 10 to 25 µM; in experiment [2] (read-out: MASP-2 Ki) it was < 500 nM; in experiment [3] it was < 500 nM. In addition, the “MASP-2 vs. thrombin selectivity” value in experiment [2] (setting [4]) is on record as “**** (≥100-fold)”.

Consider `Cc1cc(Cl)cc(CNC(=O)[C@H](C)NC(=O)[C@H]2C[C@@H](c3ccccc3)CCN2)c1O` [compound 1365, (2R,4S)—N—((S)-1-((5-Chloro-2-hydroxy-3-methylbenzyl)amino)-1-oxopropan-2-yl)-4-phenylpiperidine-2-carboxamide Hydrochloride], for which the Ki in experiment [1] (read-out: Thrombin Ki) is > 25 µM; in experiment [2] (read-out: MASP-2 Ki) it was < 500 nM; in experiment [3], < 500 nM. Also, the “MASP-2 vs. thrombin selectivity” value in experiment [2] (setting [4]) was “**** (≥100-fold)”.

Regarding `Cc1nc(N)ccc1CNC(=O)[C@H](C)NC(=O)[C@H]1C[C@H](Cc2ccc3ccccc3c2)CN1` [compound 1338, (2R,4S)—N—((S)-1-(((6-Amino-2-methylpyridin-3-yl)methyl)amino)-1-oxopropan-2-yl)-4-(naphthalen-2-ylmethyl)pyrrolidine-2-carboxamide Dihydrochloride], the Ki in experiment [1] (read-out: Thrombin Ki) was > 25 µM; in experiment [2] (read-out: MASP-2 Ki) it was < 500 nM; in experiment [3], < 500 nM. Moreover, in experiment [2] (setting [4]), the “MASP-2 vs. thrombin selectivity” value was “**** (≥100-fold)”.

Consider `Cc1nc(N)ccc1CNC(=O)[C@H](C)NC(=O)[C@H]1C[C@@H](Oc2ccccc2)CN1` [compound 1310, (2R,4R)—N—((S)-1-(((6-Amino-2-methylpyridin-3-yl)methyl)amino)-1-oxopropan-2-yl)-4-phenoxypyrrolidine-2-carboxamide Dihydrochloride], for which the Ki in experiment [1] (read-out: Thrombin Ki) was > 25 µM; in experiment [2], 500 to 2500 nM; in experiment [3], > 25000 nM. Besides, the “MASP-2 vs. thrombin selectivity” value in experiment [2] (setting [4]) is recorded as “*** (≥25 to <100-fold)”.

For `CCOC(=O)CCCN1CC[C@H](c2ccccc2)C[C@@H]1C(=O)N[C@@H](C)C(=O)NCc1ccc(N)nc1C` [compound 1440, Ethyl 4-((2R,4S)-2-(((S)-1-(((6-amino-2-methylpyridin-3-yl)methyl)amino)-1-oxopropan-2-yl)carbamoyl)-4-phenylpiperidin-1-yl)butanoate], the Ki in experiment [1] (read-out: Thrombin Ki) is > 25 µM; in experiment [2] (read-out: MASP-2 Ki) it was < 500 nM; in experiment [3], 2500 to 10000 nM.

Regarding `Cc1ccc([C@@H]2CCN[C@@H](C(=O)N[C@@H](C)C(=O)NCc3ccc(C(=N)N)cc3)C2)cc1` [compound 1248, (2R,4R)—N—((S)-1-((4-Carbamimidoylbenzyl)amino)-1-oxopropan-2-yl)-4-(p-tolyl)piperidine-2-carboxamide], the Ki was 0.5 to 2.5 µM in experiment [1] (Thrombin Ki (μM)), < 500 nM in experiment [2] (read-out: MASP-2 Ki) and < 500 nM in experiment [3]. Also, the “MASP-2 vs. thrombin selectivity” value in experiment [2] (setting [4]) is recorded as “** (≥5.0 to <25-fold)”.

For the compound `C[C@H](NC(=O)[C@@H](CCc1ccccc1)NCCc1cccc(O)c1)C(=O)NCc1ccc(C(=N)N)cc1` [compound 1330, (R)—N—((S)-1-((4-Carbamimidoylbenzyl)amino)-1-oxopropan-2-yl)-2-((3-hydroxyphenethyl)amino)-4-phenylbutanamide Di-trifluoroacetate salt], the Ki in experiment [1] (read-out: Thrombin Ki) is < 0.5 µM; in experiment [2] (read-out: MASP-2 Ki), < 500 nM; in experiment [3] it was < 500 nM. Moreover, in experiment [2] (setting [4]), the “MASP-2 vs. thrombin selectivity” value is listed as “*** (≥25 to <100-fold)”.

Consider `C[C@H](NC(=O)[C@H]1C[C@H](Cc2ccc(F)c(Cl)c2)CN1)C(=O)NCc1cc2cnccc2[nH]1` [compound 1494, (2R,4S)—N—((S)-1-(((1H-Pyrrolo[3,2-c]pyridin-2-yl)methyl)amino)-1-oxopropan-2-yl)-4-(3-chloro-4-fluorobenzyl)pyrrolidine-2-carboxamide Di-trifluoroacetate salt], for which the Ki is 2.5 to 10 µM in experiment [1] (Thrombin Ki (μM)), < 500 nM in experiment [2] (read-out: MASP-2 Ki) and < 500 nM in experiment [3]. Besides, in experiment [2] (setting [4]), the “MASP-2 vs. thrombin selectivity” value is “**** (≥100-fold)”.

For the compound `C[C@H](NC(=O)[C@H](N)CCc1ccccc1)C(=O)NCc1cccnc1N` [compound 1346, (R)-2-Amino-N—((S)-1-(((2-aminopyridin-3-yl)methyl)amino)-1-oxopropan-2-yl)-4-phenylbutanamide Dihydrochloride], the Ki in experiment [1] (read-out: Thrombin Ki) is > 25 µM; in experiment [2], 10000 to 25000 nM; in experiment [3], > 25000 nM.

For the compound `C[C@H](NC(=O)[C@H](N)CCc1ccccc1)C(=O)NCc1cnc(N)c(F)c1` [compound 1267, (R)-2-amino-N—((S)-1-(((6-amino-5-fluoropyridin-3-yl)methyl)amino)-1-oxopropan-2-yl)-4-phenylbutanamide], the Ki in experiment [1] (read-out: Thrombin Ki) is > 25 µM; in experiment [2], 2500 to 10000 nM; in experiment [3], > 25000 nM.

As to `C[C@H](NC(=O)[C@H]1C[C@H](c2ccccc2)CN1)C(=O)NCc1cc(Cl)ccc1O` [compound 1242, (2R,4R)—N—((S)-1-((5-Chloro-2-hydroxybenzyl)amino)-1-oxopropan-2-yl)-4-phenylpyrrolidine-2-carboxamide], the Ki lay within 2.5 to 10 µM in experiment [1] (Thrombin Ki (μM)), 500 to 2500 nM in experiment [2] and 2500 to 10000 nM in experiment [3]. For the same compound, the “MASP-2 vs. thrombin selectivity” value in experiment [2] (setting [4]) was “** (≥5.0 to <25-fold)”.

Turning to `COc1cc2ccccc2cc1C[C@@H]1CN[C@@H](C(=O)N[C@@H](C)C(=O)NCc2ccc(N)nc2C)C1` [compound 1478, (2R,4S)—N—((S)-1-(((6-Amino-2-methylpyridin-3-yl)methyl)amino)-1-oxopropan-2-yl)-4-((3-methoxynaphthalen-2-yl)methyl)pyrrolidine-2-carboxamide Dihydrochloride], the values for the Ki in experiment [1] (Thrombin Ki (μM)), in experiment [2] (read-out: MASP-2 Ki) and in experiment [3] were 10 to 25 µM, < 500 nM and < 500 nM, respectively. Further, in experiment [2] (setting [4]), the “MASP-2 vs. thrombin selectivity” value is “**** (≥100-fold)”.

As to `C[C@H](NC(=O)[C@H]1C[C@H](Cc2ccc(-c3ccccc3)cc2)CN1)C(=O)NCc1cnc2[nH]cc(Cl)c2c1` [compound 1356, (2R,4S)-4-([1,1′-Biphenyl]-4-ylmethyl)-N-((S)-1-(((3-chloro-1H-pyrrolo[2,3-b]pyridin-5-yl)methyl)amino)-1-oxopropan-2-yl)pyrrolidine-2-carboxamide Di-trifluoroacetate salt], the Ki in experiment [1] (read-out: Thrombin Ki) was > 25 µM; in experiment [2] (read-out: MASP-2 Ki) it was < 500 nM; in experiment [3], < 500 nM. Moreover, the “MASP-2 vs. thrombin selectivity” value in experiment [2] (setting [4]) was “**** (≥100-fold)”.

With `CN[C@H](CCc1ccccc1)C(=O)N[C@@H](C)C(=O)NCc1ccc(C(=N)N)cc1` [compound 1044], the inhibition constant Ki is < 0.5 µM in experiment [1] (read-out: Thrombin Ki), < 500 nM in experiment [2] (read-out: MASP-2 Ki) and < 500 nM in experiment [3]. In experiment [2] (setting [5]), the “MASP-2 vs. thrombin selectivity” value is on record as “** (5.0 to 25-fold)”.

Take `Cc1cc(Br)cc(CNC(=O)[C@H](C)NC(=O)[C@H](N)CCc2ccccc2)c1O` [compound 1355, (R)-2-amino-N—((S)-1-((5-bromo-2-hydroxy-3-methylbenzyl)amino)-1-oxopropan-2-yl)-4-phenylbutanamide Trifluoroacetate salt]: the Ki in experiment [1] (read-out: Thrombin Ki) is > 25 µM; in experiment [2] (read-out: MASP-2 Ki) it was < 500 nM; in experiment [3] it was 10000 to 25000 nM.

For `C[C@H](NC(=O)[C@@H](CCc1ccccc1)NCc1ccc(OCCO)cc1)C(=O)NCc1ccc(C(=N)N)cc1` [compound 1236, (R)—N—((S)-1-((4-Carbamimidoylbenzyl)amino)-1-oxopropan-2-yl)-2-((4-(2-hydroxyethoxy)benzyl)amino)-4-phenylbutanamide], the Ki in experiment [1] (read-out: Thrombin Ki) is < 0.5 µM; in experiment [2] (read-out: MASP-2 Ki), < 500 nM; in experiment [3], < 500 nM. Also, in experiment [2] (setting [4]), the “MASP-2 vs. thrombin selectivity” value is reported as “* (≥1.0 to <5.0-fold)”.

Turning to `Cc1cc(Cl)cc(CNC(=O)[C@H](C)NC(=O)[C@H](N)CCc2ccccc2)c1O` [compound 1299, (R)-2-Amino-N—((S)-1-((5-chloro-2-hydroxy-3-methylbenzyl)amino)-1-oxopropan-2-yl)-4-phenylbutanamide Hydrochloride], the Ki in experiment [1] (read-out: Thrombin Ki) is > 25 µM; in experiment [2] (read-out: MASP-2 Ki) it was < 500 nM; in experiment [3], 10000 to 25000 nM. Moreover, in experiment [2] (setting [4]), the “MASP-2 vs. thrombin selectivity” value was “**** (≥100-fold)”.

What is called Ki is the equilibrium dissociation constant of an inhibitor or competing ligand from its target.
